Data: patent publication US20040029910A1, “Protoberberine derivatives which inhibit activity of the mitogen-activated protein kinase” (priority 2000, published 2004)

Legend:
[1] = test system: knock-out mutant of spc1 (KS1366); experiment: Growth (cell number) of spc1 knock-out mutant; type: cell-based, Schizosaccharomyces pombe; conditions: Table 6, spc1 knock-out, miconazole 3 ug/mL
Protocol: To investigate the effect of protoberberine derivatives on the growth of cells, the cells of each strain were cultured in rich medium YE^AU to exponential phase(5×10^7 cells/mL). […] Then cell number was measured every 3 hours.

[2] = test system: knock-out mutant of spm1 in Mhk1-Spm1 pathway (TZs69); experiment: Growth (cell number) of spm1 knock-out mutant; type: cell-based, Schizosaccharomyces pombe; conditions: Table 4, spm1 knock-out, miconazole 3 ug/mL
Protocol: (§1) To investigate the effect of protoberberine derivatives on the growth of cells, the cells of each strain were cultured in rich medium YE^AU to exponential phase(5×10^7 cells/mL). These cells were transferred to YE^AU medium and cultured for 12 hours. Then cell number was measured every 3 hours.

[3] = test system: knock-out mutant of wis1 (JM544); experiment: Growth (cell number) of wis1 knock-out mutant; type: cell-based, Schizosaccharomyces pombe; conditions: for cell number: Table 5, wis1 knock-out, miconazole 3 ug/mL; for inhibition of the activity of Wis1 kinase, concluded from effects on knock-out mutants: conclusion from growth of knock-out mutants
Protocol: To investigate the effect of protoberberine derivatives on the growth of cells, the cells of each strain were cultured in rich medium YE^AU to exponential phase(5×10^7 cells/mL). […]

[4] = test system: knock-out mutant of byr2 in Ras-Byr2 pathway (SPSU); experiment: Growth (cell number) of byr2 knock-out mutant; type: cell-based, Schizosaccharomyces pombe; conditions: Table 3, byr2 knock-out, miconazole 3 ug/mL
Protocol: as §1

Wis1 kinase = molecular target: T1, Wis1 kinase (Schizosaccharomyces pombe, UniProt P33886); experiment: Wis1 kinase activity and autophosphorylation ([γ-32P]ATP, SDS-PAGE, FIG. 2); type: biochemical; conditions: purified GST-Wis1, kinase reaction 30° C. 30 minutes, autophosphorylation also measured
T1 construct: The genes wis1 and spc1 were cloned into the pRep1 vector containing nmt1 promoter; made in house; host or cells: Schizosaccharomyces pombe KGY246 (pRep1 vector, nmt1 promoter)
T1 sequence (P33886 1-605): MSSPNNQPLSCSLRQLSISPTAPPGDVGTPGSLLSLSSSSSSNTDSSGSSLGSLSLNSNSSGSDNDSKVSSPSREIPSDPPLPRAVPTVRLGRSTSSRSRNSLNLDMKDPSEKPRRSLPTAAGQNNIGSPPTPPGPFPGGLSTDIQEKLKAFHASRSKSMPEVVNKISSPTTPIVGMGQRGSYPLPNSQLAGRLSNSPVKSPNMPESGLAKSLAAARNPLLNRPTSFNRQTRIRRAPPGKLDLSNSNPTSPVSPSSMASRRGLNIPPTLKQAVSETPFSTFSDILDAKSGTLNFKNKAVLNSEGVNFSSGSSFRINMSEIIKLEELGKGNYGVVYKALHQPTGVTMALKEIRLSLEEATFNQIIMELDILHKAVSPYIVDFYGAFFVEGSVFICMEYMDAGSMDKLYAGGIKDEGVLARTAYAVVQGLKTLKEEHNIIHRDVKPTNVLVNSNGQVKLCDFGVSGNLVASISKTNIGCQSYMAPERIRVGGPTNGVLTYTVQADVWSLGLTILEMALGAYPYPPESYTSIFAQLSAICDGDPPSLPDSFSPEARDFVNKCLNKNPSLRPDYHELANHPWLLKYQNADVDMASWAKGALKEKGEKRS
Protocol: The genes wis1 and spc1 were cloned into the pRep1 vector containing nmt1 promoter of which expression was inhibited by thiamin in the medium and able to tag GST. The KGY246 cells, wild type Schizosaccharomyces pombe cells were transformed with this plasmid. The expression of Wis1 and Spc1 kinase tagged with GST was induced by the cultivation of the transformed cells in MM^AU medium containing 0.4 mM thiamin followed by cultivation to exponential phase(5×10^6 cells) for about 20 hours in 100 mL of MM^AU medium in which thiamin was withdrawn. After osmotic shock(0.6M KCl) and oxidative stress were given to the cells expressing Wis1 and Spc1 tagged with GST for 25 minutes, cells were recovered at 4° C., washed with ice-cold PBS/NaF(50 mM)/NaN3(1 mM) buffer and HB buffer(25 mM HEPES, pH 7.5, 60 mM β-glycerophosphate, 15 mM EGTA, 0.1 mM Na vanadate, 0.1% triton and hydrolyzed using glass bead and bead beater purchased from Sigma. The supernatant of hydrolyzed cells was incubated with 100 mM NaCl for salting-out to remove unnecessary proteins. After the supernatant was incubated with 0.045 g/ml GST beads for 1.5 hours, proteins not bound to GST beads were removed. Purified Wis1 and Spc1 kinases were separated on 7% SDS-PAGE and the degree of purification was confirmed by western blotting using GST antibody.
Before Wis1 and Spc1 kinases purified in example 4 were analyzed, they were pre-incubated in analyzing buffer of kinase (50 mM Tris-Cl pH7.4, 20 mM MgCl2, 5 mM EGTA, 2 mM Na vanadate, 1 mM DTT). The kinase reaction was performed at 30° C. for 30 minutes in the presence of 1 mg/ml myelin basic protein(MBP), 1 mM ATP and 20 uCi of [γ-^32p]ATP and then terminated by adding SDS sample buffer and heating at 90° C. for 5 minutes. The reaction mixtures were separated on SDS-polyacrylamide gel electrophoresis. After fixation with 10% acetic acid: 10% methanol and drying, the gel was exposed on X-ray film. When Wis1 is activated by stimulus, it also activates autophosphorylation. Therefore, the degree of Wis1 autophosphorylation was also measured.

| SMILES | inhibition of Wis1 kinase activity (in words) (Wis1 kinase) | inhibition of the activity of Wis1 kinase, concluded from effects on knock-out mutants [3] | also measured |
| --- | --- | --- | --- |
| Clc1ccc(COC(Cn2ccnc2)c2ccc(Cl)cc2Cl)c(Cl)c1 (stereo not shown) [miconazole, reference compound] |  |  | cell number ([1]; time 12): 15; cell number ([1]; time 15): 9; cell number ([1]; time 18): 12; cell number ([1]; time 21): 18; cell number ([1]; time 24): 17; cell number ([2]; time 12): 28; cell number ([2]; time 15): 27; cell number ([2]; time 18): 23; cell number ([2]; time 21): 34; cell number ([2]; time 24): 26; cell number ([3]; time 12): 35; cell number ([3]; time 15): 37; cell number ([3]; time 18): 25; cell number ([3]; time 21): 19; cell number ([3]; time 24): 12; cell number ([4]; time 12): 32; cell number ([4]; time 15): 19; cell number ([4]; time 18): 31; cell number ([4]; time 21): 30; cell number ([4]; time 24): 27 |
| COc1ccc2c(Cc3ccc(C)cc3)c3[n+](cc2c1OC)CCc1cc2c(cc1-3)OCO2.[Cl-] [13-(4-methylbenzyl)berberine chloride] | directly inhibited | inhibited |  |
| COc1ccc2c(Cc3ccc(Cl)cc3)c3[n+](cc2c1OC)CCc1cc2c(cc1-3)OCO2.[I-] [13-(4-chlorobenzyl)berberine iodide] | directly inhibited | inhibited |  |
| COc1ccc2c(Cc3ccc(C)c([N+](=O)[O-])c3)c3[n+](cc2c1OC)CCc1cc2c(cc1-3)OCO2.[Cl-] [13-(4-methyl-3-nitrobenzyl)berberine chloride] | directly inhibited | inhibited |  |
| COC(=O)c1ccc(Cc2c3[n+](cc4c(OC)c(OC)ccc24)CCc2cc4c(cc2-3)OCO4)cc1 [13-(4-methoxycarbonylbenzyl)berberine chloride] | directly inhibited | inhibited |  |
| COc1ccc(Cc2c3[n+](cc4c(OC)c(OC)ccc24)CCc2cc4c(cc2-3)OCO4)cc1 [13-(4-methoxybenzyl)berberine chloride] | directly inhibited | inhibited |  |
| COc1ccc2c(Cc3ccc(F)cc3C(F)(F)F)c3[n+](cc2c1OC)CCc1cc2c(cc1-3)OCO2.[Cl-] [13-(4-fluoro-2-trifluoromethylbenzyl)berberine chloride] | directly inhibited | inhibited |  |
| COc1ccc2c(Cc3cccc(Cl)c3Cl)c3[n+](cc2c1OC)CCc1cc2c(cc1-3)OCO2.[Cl-] [13-(2,3-dichlorobenzyl)berberine chloride] | directly inhibited | inhibited |  |
| COc1ccc2c(Cc3ccc(C)cc3C)c3[n+](cc2c1OC)CCc1cc2c(cc1-3)OCO2.[Cl-] [13-(2,4-dimethylbenzyl)berberine chloride] | directly inhibited | inhibited |  |
| COc1ccc2c(Cc3cccc(C(F)(F)F)c3)c3[n+](cc2c1OC)CCc1cc2c(cc1-3)OCO2.[Cl-] [13-(3-trifluoromethylbenzyl)berberine chloride] | directly inhibited | inhibited |  |
| COc1ccc2c(Cc3c(F)c(F)c(C(F)(F)F)c(F)c3F)c3[n+](cc2c1OC)CCc1cc2c(cc1-3)OCO2.[Cl-] [13-(2,3,5,6-tetrafluoro-4-trifluoromethylbenzyl)berberine chloride] | directly inhibited | inhibited |  |
| COc1ccc2c(Cc3ccc(C(C)C)cc3)c3[n+](cc2c1OC)CCc1cc2c(cc1-3)OCO2.[Cl-] [13-(4-i-propylbenzyl)berberine chloride] | directly inhibited | inhibited |  |
| COc1ccc2c(Cc3ccccc3)c3[n+](cc2c1OC)CCc1cc2c(cc1-3)OCO2.[I-] [13-benzylberberine iodide] | directly inhibited | inhibited |  |
| COc1ccc2c(Cc3c(F)cccc3Cl)c3[n+](cc2c1OC)CCc1cc2c(cc1-3)OCO2 [13-(2-chloro-6-fluorobenzyl)berberine chloride] | directly inhibited | inhibited |  |
| COc1ccc2c(Cc3c(F)c(F)c(F)c(F)c3F)c3[n+](cc2c1OC)CCc1cc2c(cc1-3)OCO2 [13-(2,3,4,5,6-pentafluorobenzyl)berberine chloride] | directly inhibited | inhibited |  |
| COc1ccc2c(Cc3cccc(Br)c3)c3[n+](cc2c1OC)CCc1cc2c(cc1-3)OCO2 [13-(3-bromobenzyl)berberine iodide] | directly inhibited | inhibited |  |
| COc1ccc2c(Cc3ccc(OC(F)(F)F)cc3)c3[n+](cc2c1OC)CCc1cc2c(cc1-3)OCO2.[Cl-] [13-(4-trifluoromethoxybenzyl)berberine chloride] | directly inhibited | inhibited |  |
